Among the data in ChEMBL document CHEMBL2439961, “Synthesis and evaluation of the cell cycle arrest and CT DNA interaction properties of 4β-amino-4'-O-demethyl-4-deoxypodophyllotoxins” (Bioorg Med Chem, 2013) are IC50 and Activity values, retold here.

Each structure is given as a SMILES string. pIC50: −log10 of the molar value. Active and inactive are the calls of the source. The calls are words filed in the database; no cut-off is given here.

The test system of experiment [1] is HeLa. The experiment can be described thus: Cytotoxicity against human HeLa cells after 48 hrs by MTT assay. In kind it is functional, cell-based. A general note: Tetrazolium assays rely on reduction of a dye to a coloured formazan, in cell work by metabolically active cells.
The test system of experiment [2] is A549. Nature of the experiment: Cytotoxicity against human A549 cells after 48 hrs by MTT assay. In kind it is functional, cell-based. The following applies: A549, 48 h.
Experiment [3] deals with HCT-8. Nature of the experiment: Cytotoxicity against human HCT8 cells after 48 hrs by MTT assay. In kind it is functional, cell-based. The settings on record: HCT-8, 48 h.
Experiment [4] has as its system HepG2. The experiment can be described thus: Cytotoxicity against human HepG2 cells after 48 hrs by MTT assay. In kind it is functional, cell-based. The following applies: HepG2, 48 h.
Experiment [5] concerns HeLa. Nature of the experiment: Cell cycle arrest in human HeLa cells assessed as accumulation at S phase at 1 uM after 24 hrs using propidium iodide staining by FACS analysis (reference value: 27.1%). In kind it is functional. On the technique in general: Flow cytometry measures light scatter and fluorescence of single cells or particles in a stream.
The test system of experiment [6] is HeLa. The experiment can be described thus: Induction of apoptosis in human HeLa cells assessed as late apoptotic cells at 0.5 uM after 24 hrs using annexin V-FITC/PI and Hoechst 33258 staining by FACS analysis (reference value: 2.39%). In kind it is functional.
For experiment [7], the system named is HeLa. Nature of the experiment: Increase of caspase-3 protein level in human HeLa cells Western blotting analysis. In kind it is functional, cell-based.
The subject of experiment [8] is HeLa. The experiment can be described thus: Cell cycle arrest in human HeLa cells assessed as accumulation at G1 phase at 0.5 uM after 24 hrs using propidium iodide staining by FACS analysis (reference value: 48.5%). In kind it is functional.
The subject of experiment [9] is HeLa. Nature of the experiment: Induction of apoptosis in human HeLa cells assessed as cell shrinkage, nuclear fragmentation and condensation dispersed throughout cytoplasm at 0.5 uM by immunofluorescence analysis. The following applies: TDE = time-dependent effect. In kind it is functional, cell-based.
Experiment [10] relates to HeLa. Nature of the experiment: Increase of p53 protein level in human HeLa cells Western blotting analysis. In kind it is functional, cell-based. On the technique in general: In western blotting, separated proteins are transferred to a membrane and probed.
The subject of experiment [11] is HeLa. Nature of the experiment: Increase of CDC2 protein level in human HeLa cells Western blotting analysis. In kind it is functional, cell-based.
Experiment [12] has as its system DNA. The experiment can be described thus: Binding affinity to calf thymus DNA assessed as reduction in intensity of positive band at 5 to 40 ug/ml after 24 hrs by circular dichroism analysis. In kind it is nucleic-acid assay. The following applies: Bos taurus.
The test system of experiment [13] is HeLa. The experiment can be described thus: Cell cycle arrest in human HeLa cells assessed as accumulation at sub-G1 phase at 1 uM after 24 hrs using propidium iodide staining by FACS analysis (reference value: 0%). In kind it is functional.
For experiment [14], the system named is HeLa. Nature of the experiment: Cell cycle arrest in human HeLa cells assessed as accumulation at G2/M phase at 1 uM after 24 hrs using propidium iodide staining by FACS analysis (reference value: 24.4%). In kind it is functional.
Experiment [15] concerns HeLa. The experiment can be described thus: Induction of morphological changes in human HeLa cells after 48 hrs by immunofluorescence analysis. In kind it is functional, cell-based.
The subject of experiment [16] is HeLa. The experiment can be described thus: Cell cycle arrest in human HeLa cells assessed as accumulation at sub-G1 phase at 0.5 uM after 24 hrs using propidium iodide staining by FACS analysis (reference value: 0%). In kind it is functional.
The subject of experiment [17] is DNA. The experiment can be described thus: Binding affinity to calf thymus DNA at 0.5 mM after 5 mins by fluorescence analysis. In kind it is nucleic-acid assay. The following applies: Bos taurus.
Experiment [18] deals with HeLa. Nature of the experiment: Induction of morphological changes in human HeLa cells by immunofluorescence analysis. In kind it is functional, cell-based. The following applies: TDE = time-dependent effect.
Experiment [19] has as its system HeLa. Nature of the experiment: Induction of apoptosis in human HeLa cells assessed as early apoptotic cells at 0.5 uM after 24 hrs using annexin V-FITC/PI and Hoechst 33258 staining by FACS analysis (reference value: 2.34%). In kind it is functional.
For experiment [20], the system named is HeLa. Nature of the experiment: Induction of apoptosis in human HeLa cells assessed as cell shrinkage, nuclear fragmentation and condensation dispersed throughout cytoplasm at 0.5 uM after 48 hrs by immunofluorescence analysis. In kind it is functional, cell-based.
Experiment [21] deals with HeLa. Nature of the experiment: Cell cycle arrest in human HeLa cells assessed as accumulation at G2/M phase after 24 hrs using propidium iodide staining by FACS analysis. In kind it is functional, cell-based.
Experiment [22] has as its system HeLa. Nature of the experiment: Induction of apoptosis in human HeLa cells assessed as early apoptotic cells at 0.25 uM after 24 hrs using annexin V-FITC/PI and Hoechst 33258 staining by FACS analysis (reference value: 2.34%). In kind it is functional.
Experiment [23] relates to HeLa. The experiment can be described thus: Cell cycle arrest in human HeLa cells assessed as accumulation at G1 phase at 1 uM after 24 hrs using propidium iodide staining by FACS analysis (reference value: 48.5%). In kind it is functional.
Experiment [24] relates to HeLa. The experiment can be described thus: Increase of cyclin-B1 protein level in human HeLa cells Western blotting analysis. In kind it is functional, cell-based.
Experiment [25] has as its system HeLa. Nature of the experiment: Cell cycle arrest in human HeLa cells assessed as accumulation at S phase at 0.5 uM after 24 hrs using propidium iodide staining by FACS analysis (reference value: 27.1%). In kind it is functional.
The test system of experiment [26] is HeLa. Nature of the experiment: Cell cycle arrest in human HeLa cells assessed as accumulation at G2/M phase at 0.5 uM after 24 hrs using propidium iodide staining by FACS analysis (reference value: 24.4%). In kind it is functional.
Experiment [27] relates to HeLa. Nature of the experiment: Induction of microtubule depolymerization in human HeLa cells assessed as short and dense microtubule networks at 0.5 uM using DAPI staining by immunofluorescence analysis. In kind it is cell-based. The following applies: TDE = time-dependent effect.
For experiment [28], the system named is HeLa. The experiment can be described thus: Induction of apoptosis in human HeLa cells assessed as late apoptotic cells at 0.25 uM after 24 hrs using annexin V-FITC/PI and Hoechst 33258 staining by FACS analysis (reference value: 2.39%). In kind it is functional.
For experiment [29], the system named is HeLa. The experiment can be described thus: Induction of microtubule depolymerization in human HeLa cells assessed as short and dense microtubule networks at 0.5 uM after 48 hrs using DAPI staining by immunofluorescence analysis. In kind it is cell-based.

In general, pIC50 refers to the IC50 on a negative log10 scale, so that one unit is a factor of ten. A low value points to a high IC50.

For `COc1cc([C@@H]2c3cc4c(cc3[C@@H](Nc3ccc(S(=O)(=O)N5CCN(c6ccc([N+](=O)[O-])cc6)CC5)cc3)[C@H]3COC(=O)[C@H]23)OCO4)cc(OC)c1O`, the pIC50 was 4.56 in experiment [1], 4.37 in experiment [2], 4.49 in experiment [3] and 4.41 in experiment [4].

`COc1cc([C@@H]2c3cc4c(cc3[C@@H](N3CCN(C)CC3)[C@H]3COC(=O)[C@H]23)OCO4)cc(OC)c1O`: the pIC50 is 5.47 in [1], 4.58 in experiment [2], 4.91 in experiment [3] and 5.57 in experiment [4].

Turning to `COc1cc([C@@H]2c3cc4c(cc3[C@@H](NCCCNc3ccc([N+](=O)[O-])cc3)[C@H]3COC(=O)[C@H]23)OCO4)cc(OC)c1O`, the pIC50 was 4.98 in [1], 4.36 in experiment [2], 4.71 in experiment [3] and 4.65 in [4].

On to `CCN1CCN([C@@H]2c3cc4c(cc3[C@@H](c3cc(OC)c(O)c(OC)c3)[C@H]3C(=O)OC[C@@H]32)OCO4)CC1`, for which the pIC50 in experiment [1] is 5.42; in [2], 4.54; in [3] it was 4.70; in experiment [4] it was 5.27.

For the molecule `COc1cc([C@@H]2c3cc4c(cc3[C@@H](NCCNc3ccc([N+](=O)[O-])cc3)[C@H]3COC(=O)[C@H]23)OCO4)cc(OC)c1O`, the pIC50 in experiment [1] was 4.83; in experiment [2] it was 4.59; in [3], 4.83; in [4], 4.49.

`COc1cc([C@@H]2c3cc4c(cc3[C@@H](O[C@@H]3O[C@@H]5CO[C@@H](C)O[C@H]5[C@H](O)[C@H]3O)[C@H]3COC(=O)[C@H]23)OCO4)cc(OC)c1O` [ETOPOSIDE]: the pIC50 in experiment [1] was 5.33; in experiment [3], 5.18; in experiment [4], 4.94.

Turning to `COc1cc([C@@H]2c3cc4c(cc3[C@@H](Nc3ccc(S(=O)(=O)N5CCN(c6ccc(F)cc6)CC5)cc3)[C@H]3COC(=O)[C@H]23)OCO4)cc(OC)c1O`, the pIC50 in experiment [1] was 4.66; in [2], 4.24; in [3], 4.52; in [4], 4.26.

For the molecule `COc1cc([C@@H]2c3cc4c(cc3[C@@H](N3CCN(c5ccc([N+](=O)[O-])cc5)CC3)[C@H]3COC(=O)[C@H]23)OCO4)cc(OC)c1O`, the Activity in experiment [5] is 28.6%; in experiment [6] it was 4.76%; in [7], “Dose-dependent effect”; in experiment [8], 5.9%; in experiment [9], “tde”; in [10], “Dose-dependent effect”. Further, the Activity entry was “Dose-dependent effect” in [11]; 4.9% in [13]; 71.4% in experiment [14]; 1% in experiment [16]; “tde” in [18]; 4.88% in [19]. For the same molecule, the Activity entry was “Dose-dependent effect” in experiment [21]; 3.99% in [22]; 0.1% in [23]; “Dose-dependent effect” in [24]; 58.7% in [25]; 35.4% in experiment [26]. The results for the Activity result in experiment [27] and in [28] were “tde” and 3.54%, respectively. Also, the pIC50 in [1] is 7.15; in experiment [2] it was 6.80; in experiment [3] it was 5.67; in experiment [4], 5.84. In addition, the outcome in experiment [12], in experiment [15], in [17], in [20] and in [29] was Active.

In the case of `COc1cc([C@@H]2c3cc4c(cc3[C@@H](N3CCN(c5ccc(F)cc5)CC3)[C@H]3COC(=O)[C@H]23)OCO4)cc(OC)c1O`, the pIC50 is 4.87 in [1], 4.56 in experiment [2], 4.84 in [3] and 4.69 in experiment [4].

For `COc1cc([C@@H]2c3cc4c(cc3[C@@H](Nc3ccc(S(=O)(=O)NC5CCCC5)cc3)[C@H]3COC(=O)[C@H]23)OCO4)cc(OC)c1O`, the pIC50 in [1] is 4.45; in [2], 4.28; in experiment [3], 4.41; in [4] it was 4.32.

`COc1cc([C@@H]2c3cc4c(cc3[C@@H](N3CCN(C5CCCC5)CC3)[C@H]3COC(=O)[C@H]23)OCO4)cc(OC)c1O`: the pIC50 was 4.93 in experiment [1], 4.84 in [2], 4.99 in [3] and 5.07 in experiment [4].
